# Legend:
# [1] = target: T1, 5-HT1A receptors (Rattus norvegicus, UniProt P19327); assay: Inhibition of stereotypy (rhythmic forepaw treading) induced by 8-OH-DPAT in rats (post-synaptic antagonism); assay type: in vivo; conditions: for inhibition at 1 mg/kg / inhibition at 10 mg/kg: rat; for inhibition at 10 mg/kg: 10 mg/kg p.o.
# T1 construct: from tissue; host or cells: whole animal: male Sprague-Dawley rats (post-synaptic 5-HT1A receptors)
# T1 sequence (P19327 1-422): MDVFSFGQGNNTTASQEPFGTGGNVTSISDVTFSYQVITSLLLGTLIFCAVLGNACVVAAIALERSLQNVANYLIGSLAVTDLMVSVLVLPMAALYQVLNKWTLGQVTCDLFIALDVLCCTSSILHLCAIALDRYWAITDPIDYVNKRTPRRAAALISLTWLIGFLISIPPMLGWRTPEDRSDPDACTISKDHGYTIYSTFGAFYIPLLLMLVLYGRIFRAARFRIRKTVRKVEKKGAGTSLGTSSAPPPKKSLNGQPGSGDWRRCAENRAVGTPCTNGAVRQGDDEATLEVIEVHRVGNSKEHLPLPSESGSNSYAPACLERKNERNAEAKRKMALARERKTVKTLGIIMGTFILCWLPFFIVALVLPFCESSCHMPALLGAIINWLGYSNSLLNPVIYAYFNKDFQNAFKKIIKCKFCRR
# Procedure: The inhibitory effect of 5-HT1A-receptor antagonists on stereotyped forepaw treading induced in rats by subcutaneous injection of 8-OH-DPAT was evaluated by the method of Tricklebank (Tricklebanket al., Eur. J. Pharmacol., 117: 15, 1985) with minor modifications as described below.
# Male Sprague-Dawley rats [Crl: CD° (SD) BR] weighing 150-175 g from Charles River Italia were used. The animals were housed with free access to food and water and maintained on a forced 12-hour-light/12-hour-dark cycle at 22-24° C. of temperature. On the day of the experiment, the rats were placed singly in clear plastic containers, 10-15 minutes before administration of the vehicle or compounds to be tested. For evaluation of antagonistic activity after oral administration, the compounds were administered 0.5, 1 and 4 hours before induction of stereotypy by 8-OH-DPAT (1 mg/kg subcutaneously). Observation sessions lasted 30 seconds and began 3 minutes after 8-OH-DPAT treatment and were repeated every 3 minutes over a period of 15 minutes.
# The appearance of the symptom induced by postsynaptic stimulation of 5-HT1A receptors was noted, and the intensity was scored using an intensity scale in which: 0=absent, 1=equivocal, 2=present and 3=intense. Behavioural scores for treated rats were accumulated throughout the observation time (5 observation periods) and expressed as mean values of 4 rats/dose. Change in mean values of treated animals in comparison with control (vehicle) group, expressed as per-cent inhibition, was used in order to quantify the antagonistic activity.
# [2] = target: T2, human 5HT1A-serotonergic receptor (Homo sapiens, UniProt P08908); assay: Radioligand binding to recombinant 5-HT1A receptors; conditions: [3H]8-OH-DPAT 1 nM, membranes of HeLa cells with human 5-HT1A receptor; Ki from IC50 by Cheng & Prusoff; read-out: Binding affinity for 5HT1A receptors, Ki
# T2 construct: expressed in transfected cells; host or cells: HeLa (human cell line), stably transfected; cell membranes used
# T2 sequence (P08908 1-422): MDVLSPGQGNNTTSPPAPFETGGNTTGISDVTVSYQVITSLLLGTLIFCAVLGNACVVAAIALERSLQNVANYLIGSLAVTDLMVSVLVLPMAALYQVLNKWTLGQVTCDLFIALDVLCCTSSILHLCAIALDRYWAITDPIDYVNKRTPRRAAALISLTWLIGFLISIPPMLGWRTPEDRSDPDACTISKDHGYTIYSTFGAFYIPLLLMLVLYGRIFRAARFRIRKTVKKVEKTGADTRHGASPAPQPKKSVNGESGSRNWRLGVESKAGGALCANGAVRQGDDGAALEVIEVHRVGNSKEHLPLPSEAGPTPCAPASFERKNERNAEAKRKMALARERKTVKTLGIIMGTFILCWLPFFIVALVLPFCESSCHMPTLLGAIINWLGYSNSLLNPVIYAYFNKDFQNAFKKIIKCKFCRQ
# How it was run: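 Membranes from HeLa cells stably expressing human 5-HT1A incubated 30 min at 30 °C with 1 nM [3H]8-OH-DPAT and compound in 50 mM Tris-HCl pH 7.4, 2.5 mM MgCl2, […] pargyline. Nonspecific binding defined with 10 μM 5-HT; filtration readout, IC50 converted to Ki via Cheng–Prusoff.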
# [3] = 0.5 h before 8-OH-DPAT (1 mg/kg s.c.)
# [4] = 1 h before 8-OH-DPAT (1 mg/kg s.c.)
# [5] = 4 h before 8-OH-DPAT (1 mg/kg s.c.)
Compound,Ki [2],further results
"O=C(C1CCCCC1)N1c2ccccc2CCC1CN1CCN(c2cccc3[nH]ccc23)CC1 (single isomer, unassigned; (-)) [(−)-1, (−)-1-(1-Cyclohexanecarbonyl-1,2,3,4-tetrahydroquinoline-2-ylmethyl)-4-(4-indolyl)piperazine]",–,"post-synaptic 5-HT1A-receptor antagonist activity (in words) ([1]; 1 mg/kg p.o., rats): devoid of activity; inhibition at 1 mg/kg ([1]; 1 mg/kg p.o., 0.5 h before 8-OH-DPAT (1 mg/kg s.c.)): 19%; inhibition at 1 mg/kg ([1]; 1 mg/kg p.o., 1 h before 8-OH-DPAT (1 mg/kg s.c.)): 5%; inhibition at 1 mg/kg ([1]; 1 mg/kg p.o., 4 h before 8-OH-DPAT (1 mg/kg s.c.)): 9%"
"O=C(C1CCCCC1)N1c2ccc(F)cc2CCC1CN1CCN(c2cccc3[nH]ccc23)CC1 (centres unmarked) [Example 18, 1-(1-Cyclohexanecarbonyl-6-fluoro-1,2,3,4-tetrahydroquinoline-2-ylmethyl)-4-(4-indolyl)piperazine]",2.8 nM,"inhibition at 10 mg/kg [1, 3]: 98%; inhibition at 10 mg/kg [1, 4]: 92%; inhibition at 10 mg/kg [1, 5]: 92%"
"O=C(C1CC=CCC1)N1c2ccccc2CCC1CN1CCN(c2cccc3[nH]ccc23)CC1 (centres unmarked) [Example 24A1, 1-(1-Cyclohex-3-enylcarbonyl-1,2,3,4-tetrahydroquinoline-2-ylmethyl)-4-(4-indolyl)piperazine]",2.6 nM,"inhibition at 10 mg/kg [1, 3]: 100%; inhibition at 10 mg/kg [1, 4]: 100%; inhibition at 10 mg/kg [1, 5]: 100%"
"CC(C)(C)NC(=O)N1c2ccccc2CCC1CN1CCN(c2nccc3ccccc23)CC1 (centres unmarked) [Example 75A15, 1-(1-Isoquinolinyl)-4-[1-(1,1-Dimethyethylaminocarbonyl)-1,2,3,4-tetrahydroquinolin-2-ylmethyl]piperazine]",27.7 nM,–
"CC(C)CC(=O)N1c2ccccc2CCC1CN1CCN(c2nccc3ccccc23)CC1 (centres unmarked) [Example 75A, 1-(1-Isoquinolinyl)-4-[1-(3-methylbutanoyl)-1,2,3,4-tetrahydroquinolin-2-ylmethyl]piperazine]",3.2 nM,–
"O=C(CC1CC1)N1c2ccccc2CCC1CN1CCN(c2cccc3c2OCCO3)CC1 (centres unmarked) [Example 76A1, 4-[1-(2-Cyclopropylacetyl)-1,2,3,4-tetrahydroquinolin-2-ylmethyl]-1-(2,3-dihydrobenzo[1,4]dioxin-5-yl)piperazine]",5.4 nM,–
"O=C(c1ccc[nH]1)N1c2ccccc2CCC1CN1CCN(c2cccc3c2OCCO3)CC1 (centres unmarked) [Example 76A2, 1-(2,3-Dihydrobenzo[1,4]dioxin-5-yl)-4-[1-(2-pyrrolylcarbonyl)-1,2,3,4-tetrahydroquinolin-2-ylmethyl]piperazine]",5.1 nM,–
"O=C(c1ccco1)N1c2ccccc2CCC1CN1CCN(c2cccc3c2OCCO3)CC1 (centres unmarked) [Example 76A3, 1-(2,3-Dihydrobenzo[1,4]dioxin-5-yl)-4-[1-(2-furanecarbonyl)-1,2,3,4-tetrahydroquinolin-2-ylmethyl]piperazine]",5 nM,–
"COc1ccc(C(=O)N2c3ccccc3CCC2CN2CCN(c3cccc4c3OCCO4)CC2)cc1 (centres unmarked) [Example 76A4, 1-(2,3-Dihydrobenzo[1,4]dioxin-5-yl)-4-[1-(4-methoxybenzoyl)-1,2,3,4-tetrahydroquinolin-2-ylmethyl]piperazine]",3.9 nM,–
"N#Cc1ccc(C(=O)N2c3ccccc3CCC2CN2CCN(c3cccc4c3OCCO4)CC2)cc1 (centres unmarked) [Example 76A5, 1-[1-(4-Cyanobenzoyl)-1,2,3,4-tetrahydroquinolin-2-ylmethyl]-4-(2,3-dihydrobenzo[1,4]dioxin-5-yl)piperazine]",12.4 nM,–
"O=C(Cc1cccs1)N1c2ccccc2CCC1CN1CCN(c2cccc3c2OCCO3)CC1 (centres unmarked) [Example 76A6, 1-(2,3-Dihydrobenzo[1,4]dioxin-5-yl)-4-[1-[2-(2-thienyl)acetyl]-1,2,3,4-tetrahydroquinolin-2-ylmethyl]piperazine]",5.5 nM,–
"O=C(Cc1ccsc1)N1c2ccccc2CCC1CN1CCN(c2cccc3c2OCCO3)CC1 (centres unmarked) [Example 76A7, 1-(2,3-Dihydrobenzo[1,4]dioxin-5-yl)-4-[1-[2-(3-thienyl)acetyl]-1,2,3,4-tetrahydroquinolin-2-ylmethyl]piperazine]",8.5 nM,–
O=C(C1CCC1)N1c2ccccc2CCC1CN1CCN(c2cccc3c2OCCO3)CC1 (centres unmarked) [Example 76A8],19.2 nM,–
"O=S(=O)(c1ccccc1)N1c2ccccc2CCC1CN1CCN(c2cccc3c2OCCO3)CC1 (centres unmarked) [Example 76A10, 1-(1-Benzenesulphonyl-1,2,3,4-tetrahydroquinolin-2-ylmethyl)-4-(2,3-dihydrobenzo[1,4]dioxin-5-yl)piperazine]",21.5 nM,–
"O=S(=O)(Cc1ccccc1)N1c2ccccc2CCC1CN1CCN(c2cccc3c2OCCO3)CC1 (centres unmarked) [Example 76A11, 1-(2,3-Dihydrobenzo[1,4]dioxin-5-yl)-4-(1-phenylmethanesulphonyl-1,2,3,4-tetrahydroquinolin-2-ylmethyl)piperazine]",4.5 nM,–
"O=C(C1CCCCC1)N1c2ccccc2CCC1CN1CCN(c2ccccc2OS(=O)(=O)C(F)(F)F)CC1 (centres unmarked) [Example 79, 1-(1-Cyclohexanecarbonyl-1,2,3,4-tetrahydroquinoline-2-ylmethyl)-4-(2-triluoromethanesulphonyloxyphenyl)piperazine]",4.5 nM,–

# The next lines start with results.
Ki [2],Compound,further results
8 nM,"Cc1ccccc1NC(=O)N1c2ccccc2CCC1CN1CCN(c2cccc3c2OCCO3)CC1 (centres unmarked) [Example 76A12, 1-(2,3-Dihydrobenzo[1,4]dioxin-5-yl)-4-[1-(2-methylphenylaminocarbonyl)-1,2,3,4-tetrahydroquinolin-2-ylmethyl]piperazine]",–
2.3 nM,"CC(C)(C)NC(=O)N1c2ccccc2CCC1CN1CCN(c2cccc3c2OCCO3)CC1 (centres unmarked) [Example 76A13, 1-(2,3-Dihydrobenzo[1,4]dioxin-5-yl)-4-[1-(1,1-dimethylethylaminocarbonyl)-1,2,3,4-tetrahydroquinolin-2-ylmethyl]piperazine]",–
8.1 nM,"CC(=O)N1CCC(C(=O)N2c3ccccc3CCC2CN2CCN(c3cccc4c3OCCO4)CC2)CC1 (centres unmarked) [Example 76A15, 1-[1-(1-acetyl-4-piperidinecarbonyl)-1,2,3,4-tetrahydroquinolin-2-ylmethyl]-4-(2,3-dihydrobenzo[1,4]dioxin-5-yl)piperazine]",–
24.2 nM,"COc1ccccc1OCCN(C)CC1CCc2ccccc2N1C(=O)CC(C)(C)C (centres unmarked) [Example 77A1, N-[1-(3,3-Dimethylbutanoyl)-1,2,3,4-tetrahydroquinolin-2-ylmethyl]-N-[2-(2-methoxyphenoxy)ethyl]methylamine]",–
13.1 nM,"COc1ccc(C(=O)N2c3ccccc3CCC2CN(C)CCOc2ccccc2OC)cc1 (centres unmarked) [Example 77A5, N-[1-(4-Methoxybenzoyl)-1,2,3,4-tetrahydroquinolin-2-ylmethyl]-N-[2-(2-methoxyphenoxy)ethyl]methylamine]",–
41.2 nM,"COc1cc(F)ccc1N1CCN(CC2CCc3cc(N)ccc3N2C(=O)C2CCCCC2)CC1 (centres unmarked) [Example 85, 1-(6-Amino-1-cyclohexanecarbonyl-1,2,3,4-tetrahydroquinoline-2-ylmethyl)-4-(4-fluoro-2-methoxyphenyl)piperazine]",–
18.2 nM,"COc1cc(C)ccc1N1CCN(CC2CCc3ccccc3N2C(=O)C2CCCCC2)CC1 (centres unmarked) [Example 86A, 1-(1-Cyclohexanecarbonyl-1,2,3,4-tetrahydroquinoline-2-ylmethyl)-4-(2-methoxy-4-methylphenyl)piperazine]",–

# — US20030162777A1, “Novel N-acylated heterocycles” (Recordati S.A., priority 2001, published 2003)
